According to patent publication US9468624B2, “Small molecule antagonists of bacterial quorum-sensing receptors” (priority 2008, dated 2016):
pEC50, pIC50: −log10 of the molar value.

Experiments:
CviR [1] = biological target: T1, CviR (Chromobacterium violaceum, UniProt D3W065); type: binding; set-up: made in house; host or cells: E. coli BL21(DE3) pLysS, plasmid pET23b; settings: for DNA binding of ligand-loaded CviR to vioA promoter: CviR 100-500 nM
Protocol: (§1) CviR Overexpression and Purification. CviR was overexpressed in BL21(DE3) pLysS by growing an overnight culture in LB supplemented with 100 μg/mL ampicillin and 10 μg/mL chloramphenicol. The culture was diluted 1:50 into fresh LB supplemented with 100 μg/mL ampicillin and 10 μg/mL chloramphenicol and grown shaking at 37° C. to an OD600 of 0.4. Various AHL or antagonist molecules were added to at 50 μM and incubated an additional 30 minutes at 30° C., after which expression was induced by the addition of 100 μM IPTG (isopropyl-β-D-thiogalactopyranoside) for 4 hours at 30° C. Cells were harvested by centrifugation and lysed in 20 mM imidazole pH 8.0, 100 mM NaCl, 0.5 mM EDTA and 5% glycerol via a Micro-fluidizer processor (MicroFluidics). Protein was purified via ion-exchange using a Hitrap Heparin HP column (GE Healthcare). Protein was eluted with a 100 mM to 1 M NaCl gradient. Fractions containing CviR were pooled and diluted in lysis buffer devoid of NaCl, and then further purified by cation exchange chromatography using a Hitrap SP HP column (GE Healthcare). CviR was eluted with a 100 mM to 1 M NaCl gradient.
DNA probes for gel mobility shift analyses were generated by standard polymerase chain reaction using primers with a 5′ 6-FAM (fluorescein) tag (Integrated DNA Technologies). The target probe contained about 100 nucleotides of the vioA promoter. The control probe contained 300 bases of vioB intergenic DNA. 37 ng of each probe was incubated for 20 minutes at room temperature with the indicated amounts of CviR (0, 0.1, 0.2, 0.3, 0.4 and 0.5 μM) and 1 μg/μL poly-dIdC in 1× Gel shift buffer (40 mM Tris HCl pH 8.0, 100 mM KCL, 2 mM EDTA, 2 mM DTT, 10% glycerol, 200 μg/mL BSA). Gel mobility shifts were performed on 6% TGE-polyacrylamide gels and visualized using a Storm 860 Imaging System (Molecular Dynamics).
To further investigate the mechanism underlying antagonism of the CviR receptor, an examination was undertaken of whether the soluble CviR antagonist complexes were incapable of binding DNA, and thus unable to activate transcription. […] The CviR protein was also purified in complex with each of the synthetic antagonist molecules, 4606-4237, CTL, and CL. Performance of DNA gel mobility shift analyses enabled assessment of the binding of each of these purified, loaded protein complexes to the vioA promoter.
The reciprocal experiment tested whether C6-HSL could replace CL bound to CviR.

CviR [2] = biological target: T1, CviR; type: cell-based; set-up: made in house; host or cells: E. coli BL21(DE3) pLysS, plasmid pET23b; settings: for pEC50: E. coli expressing CviR, vioA-gfp reporter, read-out: EC50 for activation of vioA-gfp expression; for maximal level of vioA-gfp expression: compared with C6-HSL; for induction of vioA-gfp expression through CviR: even at 100 μM
Protocol: (§2) The vioA-gfp promoter fusion was constructed by amplifying the vioA promoter and cloning this region upstream of gfp in pEVS141 at the SphI and SalI sites. Cells containing the vioA-gfp construct were electroporated with the pET23 carrying cviR and selected on LB medium supplemented with 75 μg/mL ampicillin and 50 μg/mL kanamycin. The E. coli strain containing cviR and the vio:gfp reporter is named ELS1257.
(§3) E. coli strains were grown overnight in LB medium with antibiotics at 37° C. and sub-cultured into fresh medium at a 1:100 dilution. Various AHL and antagonists were added at constant concentrations or titrated as stated. The gfp was measured on an Envision plate reader after 5 hours of growth at 37° C. C. violaceum strains were grown aerobically in 1 mL Nutrient Broth plus 1 mM tryptophan at 30° C. […] Cells were collected via centrifugation at 13000 rpm for 15 minutes. Pellets were resuspended in 1 mL of methanol and incubated at 42° C. for 1 hour. Samples were again collected via centrifugation at 13000 rpm for 5 minutes and analyzed for violacein by measuring optical density at 568 nm on a Beckman Coulter DU-800 spectrophotometer. For the dose-response analyses, all assays were performed in triplicate.
To examine the specificity and sensitivity of CviR, an E. coli strain was engineered that expresses CviR and contains a plasmid harboring the vioA promoter fused to green fluorescent protein (gfp). Thus, the ability of CviR to activate transcription can be assessed by measuring gfp expression in the presence of various molecules.

CviR [3] = biological target: T1, CviR; assay: cell-based; type: cell-based; set-up: made in house; host or cells: E. coli BL21(DE3) pLysS, plasmid pET23b; settings: constant 500 nM C6-HSL; read-out: IC50 for inhibition of vioA-gfp expression
Protocol: as §2, §3
However, binding of the longer acyl-tail length AHL molecules disrupts the transcriptional activation ability of CviR.
To determine if 4606-4237 inhibits violacein production specifically by interfering with CviR, 4606-4237 was tested for antagonism of CviR in the recombinant E. coli vioA-gfp assay. For these experiments, C6-HSL was held constant at 500 nM, while 4606-4237 was titrated from 1.3 nM to 100 μM (FIG. 3D). […] Importantly, no C. violaceum components other than CviR are present in the recombinant E. coli assay strain. Thus, any inhibition occurring would be due to a specific interaction between the antagonist molecule 4606-4237 and CviR rather than an interaction of 4606-4237 with some unknown component required for violacein production in C. violaceum.

[4] = tested on: C. violaceum killing of C. elegans; assay: C. elegans life span assay following C. violaceum infection; type: in vivo, Caenorhabditis elegans; settings: C. violaceum cviI mutant
Protocol: Life Span Assays. C. elegans lifespan assays were completed with at least 100 wild type N2 worms for each condition. C. elegans eggs were harvested from a large population of gravid adults using a standard bleaching protocol (30 mL 5% bleach, 15 mL N KOH, 55 mL DH2O). Harvested eggs were placed on lawns of fresh E. coli OP50 and allowed to hatch and grow to the young adult (L4) stage before being moved onto lawns of C. violaceum. Worms were scored for survival each day and transferred to new C. violaceum lawns every two days until all worms had expired.
In the presence of the mutant strain, the median C. elegans lifespan is twelve days (FIG. 7A; DMSO control). Exogenous addition of the native autoinducer molecule, C6-HSL restored quorum sensing and complemented the cviI mutant's ability to kill C. elegans (median lifespan=4 days, FIG. 7A).

CviR [5] = biological target: T1, CviR; settings: CviR expressed in E. coli, whole cell vs soluble extract, ligand 50 μM
Protocol: as §1
The solubility characteristics of CviR were analyzed in the presence of the various molecules under study. […] As controls, the protein was also expressed in the absence of any AHL or antagonist. In each case, whole cell and soluble fractions of cell lysates were analyzed by SDS-PAGE to assess whether the CviR protein in question had been stabilized.

bacterial growth = assay: Bacterial growth in presence of antagonist; type: cell-based, Chromobacterium violaceum
[6] = tested on: CviR-dependent violacein production; assay: Violacein production in wild type C. violaceum, dose-response; type: cell-based; settings: Chromobacterium violaceum, read-out: IC50 for inhibition of violacein production
Protocol: as §3
To determine if 4606-4237 inhibits violacein production specifically by interfering with CviR, 4606-4237 was tested for antagonism of CviR in the recombinant E. coli vioA-gfp assay. For these experiments, C6-HSL was held constant at 500 nM, while 4606-4237 was titrated from 1.3 nM to 100 μM (FIG. 3D). This concentration of native C6-HSL signal induces maximal gfp production in this heterologous assay system. Importantly, no C. violaceum components other than CviR are present in the recombinant E. coli assay strain. Thus, any inhibition occurring would be due to a specific interaction between the antagonist molecule 4606-4237 and CviR rather than an interaction of 4606-4237 with some unknown component required for violacein production in C. violaceum. […] Thus, 4606-4237 functions by disabling CviR-mediated activation of gene expression in both the C. violaceum in vivo violacein assay and the recombinant E. coli vioA-gfp assay.

[7] = tested on: CviR-dependent violacein production; assay: Violacein production in C. violaceum cviI mutant with exogenous C6-HSL; type: cell-based, Chromobacterium violaceum; settings: 5 μM C6-HSL, 50 μM antagonist
Protocol: as §3
High-throughput chemical library screens had identified 15 molecules that inhibit AHL detection by the membrane-bound two-component AHL receptor LuxN (structures are provided in FIG. 8A). Experiments were undertaken to establish whether any of these LuxN antagonist molecules could also interfere with AHL binding to CviR. […] The native C6-HSL signal was added exogenously and held constant at 5 μM and violacein production was measured in the presence of 50 μM of each potential antagonist (FIG. 8B).

T1 sequence (D3W065 1-265): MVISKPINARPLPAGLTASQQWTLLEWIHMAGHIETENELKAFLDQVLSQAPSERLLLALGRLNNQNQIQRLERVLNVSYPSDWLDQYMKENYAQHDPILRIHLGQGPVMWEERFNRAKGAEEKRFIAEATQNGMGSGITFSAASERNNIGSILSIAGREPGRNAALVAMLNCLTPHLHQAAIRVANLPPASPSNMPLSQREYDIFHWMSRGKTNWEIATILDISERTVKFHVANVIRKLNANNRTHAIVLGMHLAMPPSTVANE

| Compound | DNA binding of ligand-loaded CviR to vioA promoter (CviR [1]) | pEC50 (CviR [2]) | pIC50 (CviR [3]) | induction of vioA-gfp expression through CviR (CviR [2]) | also measured |
| --- | --- | --- | --- | --- | --- |
| CCCCCCCC(=O)N[C@H]1CCOC1=O [C8-HSL] | bound DNA with similar affinity to the C6-HSL loaded CviR complex | 7.52 | – | – | maximal level of vioA-gfp expression (CviR [2]): half of the maximal vioA-gfp expression induced by C6-HSL |
| CCCCCCCCCCCCCC(=O)N[C@H]1CCOC1=O [C14-HSL] | no ability to bind DNA | – | 6.57 | do not induce vioA-gfp expression | – |
| CCCC(=O)N[C@H]1CCOC1=O [C4-HSL] | – | 4.92 | – | – | maximal level of vioA-gfp expression (CviR [2]): can induce maximal vioA-gfp expression |
| CCCCCC(=O)N[C@H]1CCOC1=O [C6-HSL, C6-homoserine lactone] | binds DNA with high affinity | 7.12 | – | – | median C. elegans lifespan ([4]; C6-HSL 5 μM added): 4 days; ligand exchange on loaded CviR, effect on DNA binding (CviR [1]; 500 nM loaded CviR, competing ligand 0-10 μM): not likewise capable of replacing CL to generate fully competent DNA bound complex; CviR folding and solubility in presence of ligand (CviR [5]): soluble |
| Cc1cc(Cl)ccc1OCCCC(=O)NC1CCSC1=O (centres unmarked) [4606-4237, 4-(4-chloro-2-methylphenoxy)-N-(2-oxotetrahydrothiophen-3-yl)butanamide] | no ability to bind DNA | – | – | – | inhibition of bacterial growth (bacterial growth): does not inhibit bacterial growth; pIC50 [6]: 5.92; C. elegans median survival ([4]; C6-HSL 5 μM and 4606-4237 50 μM added simultaneously): twelve; effect on C. elegans ([4]; no C6-HSL, 4606-4237 50 μM): had little affect on C. elegans; violacein production [7]: completely abolished violacein production |
| CCCCCCCCCCCC(=O)N[C@H]1CCOC1=O [C12-HSL] | no ability to bind DNA | – | 6.31 | do not induce vioA-gfp expression | – |
| CCCCCCCCCC(=O)N[C@H]1CCOC1=O [C10-HSL, reference compound] | does not abolish DNA binding | – | 6.68 | do not induce vioA-gfp expression | CviR folding and solubility in presence of ligand (CviR [5]): soluble |
